Laboratory results from patent US20240424132A1, “ATHEROSCLEROSIS-TARGETED LIPOSOME NANOCARRIER DELIVERY SYSTEM AND PREPARATION METHOD THEREFOR” (Beijing Inno Medicine Co., Ltd., priority 2021, published 2024).

Test system: arterial plaques
Experiment: In vivo therapeutic effect on arterial plaques (carotid MRI, percentage of plaque volume progression)
Design: species or system ApoE−/− mice
Conditions: 0.66 mg rosuvastatin per kg, once every other day, 4 weeks
Procedure: (1) A normal saline solution of free rosuvastatin was prepared, and a nanodelivery system loaded with the therapeutic agent was prepared by the method described in the above Example 2. SPF-grade ApoE−/− mice (42 mice, 5-6 weeks old, weight 20±1 g) were taken as assay animals. The mice were fed an adaptive high-fat diet (fat 10% (w/w), cholesterol 2% (w/w), sodium cholate 0.5% (w/w), and the rest being normal feed for mice) for 4 weeks, and then anaesthetized via intraperitoneal injection of 1% sodium pentobarbital (prepared by adding […] of sodium pentobarbital to 100 ml of normal saline) at a dose of 40 mg/kg. Then, the mice were fixed on the surgical plate in the supine position, and disinfected around the neck with 75% (v/v) alcohol. The neck skin was cut longitudinally, and the anterior cervical gland was bluntly separated, and the beating left common carotid artery can be observed on the left side of the trachea. The common carotid artery was carefully separated to the bifurcation. A silicone cannula with a length of 2.5 mm and an inner size of 0.3 mm was placed on the outer periphery of the left common carotid artery. […] For animals in each group, carotid MRI scans were performed before and after treatment weekly to detect plaque and lumen area, and the percentage of plaque volume progression was calculated based on the scanned thickness. […]

## CC(C)c1nc(N(C)S(C)(=O)=O)nc(-c2ccc(F)cc2)c1/C=C/[C@@H](O)C[C@@H](O)CC(=O)O [free rosuvastatin, rosuvastatin]
intravenous
  therapeutic effect on plaques, intravenous administration: cannot exhibit the therapeutic effect of reversing plaques
oral
  therapeutic effect on plaques, oral administration: cannot exhibit the therapeutic effect of reversing plaques
